Assay results taken from ChEMBL document CHEMBL1177794, “Broad spectrum alkynyl inhibitors of T315I Bcr-Abl” (Bioorg Med Chem Lett, 2010).

How the values were obtained:
[1] = target: Bone morphogenetic protein receptor type-1A (Homo sapiens) (UniProt P36894); assay: Inhibition of BMPR1A at 10 uM; settings: values are per cent of control
[2] = target: Mitogen-activated protein kinase 14 (Homo sapiens) (UniProt Q16539); assay: Inhibition of p38alpha at 10 uM; values are per cent of control
[3] = target: Cyclin-dependent kinase 17 (Homo sapiens) (UniProt Q00537); assay: Inhibition of PCTK2 at 10 uM; settings: values are per cent of control
[4] = target: Interleukin-1 receptor-associated kinase 1 (Homo sapiens) (UniProt P51617); assay: Inhibition of IRAK1 at 10 uM; values are per cent of control
[5] = target: NUAK family SNF1-like kinase 2 (Homo sapiens) (UniProt Q9H093); assay: Inhibition of SNARK at 10 uM
[6] = target: Uncharacterized serine/threonine-protein kinase SBK3 (Homo sapiens) (UniProt P0C264); assay: Inhibition of SgK110 at 10 uM
[7] = target: Atypical kinase COQ8A, mitochondrial (Homo sapiens) (UniProt Q8NI60); assay: Inhibition of ADCK3 at 10 uM; settings: values are per cent of control
[8] = target: Dual specificity mitogen-activated protein kinase kinase 5 (Homo sapiens) (UniProt Q13163); assay: Inhibition of MEK5 at 10 uM; settings: values are per cent of control
[9] = target: Serine/threonine-protein kinase ICK (Homo sapiens) (UniProt Q9UPZ9); assay: Inhibition of ICK at 10 uM; settings: values are per cent of control
[10] = target: Ephrin type-B receptor 3 (Homo sapiens) (UniProt P54753); assay: Inhibition of EPHB3 at 10 uM; settings: values are per cent of control
[11] = target: Mitogen-activated protein kinase kinase kinase 10 (Homo sapiens) (UniProt Q02779); assay: Inhibition of MLK2 at 10 uM
[12] = target: Serine/threonine-protein kinase LATS1 (Homo sapiens) (UniProt O95835); assay: Inhibition of LATS1 at 10 uM; values are per cent of control
[13] = target: Serine/threonine-protein kinase 17A (Homo sapiens) (UniProt Q9UEE5); assay: Inhibition of DRAK1 at 10 uM; values are per cent of control
[14] = target: Dual specificity mitogen-activated protein kinase kinase 1 (Homo sapiens) (UniProt Q02750); assay: Inhibition of MEK1 at 10 uM; settings: values are per cent of control
[15] = target: Ephrin type-A receptor 4 (Homo sapiens) (UniProt P54764); assay: Inhibition of EPHA4 at 10 uM; settings: values are per cent of control
[16] = target: Vascular endothelial growth factor receptor 1 (Homo sapiens) (UniProt P17948); assay: Inhibition of FLT1 at 10 uM; values are per cent of control
[17] = target: Serine/threonine-protein kinase ULK1 (Homo sapiens) (UniProt O75385); assay: Inhibition of ULK1 at 10 uM; settings: values are per cent of control
[18] = target: Serine/threonine-protein kinase Nek1 (Homo sapiens) (UniProt Q96PY6); assay: Inhibition of NEK1 at 10 uM
[19] = tested on: Hepatocyte growth factor receptor (Homo sapiens), P08581 [Y1235D]; assay: Inhibition of MET Y1235D mutant at 10 uM
[20] = target: Ribosomal protein S6 kinase alpha-4 (Homo sapiens) (UniProt O75676); assay: Inhibition of RPS6KA4 N-terminal domain1 at 10 uM
[21] = target: Death-associated protein kinase 3 (Homo sapiens) (UniProt O43293); assay: Inhibition of DAPK3 at 10 uM; settings: values are per cent of control
[22] = target: Megakaryocyte-associated tyrosine-protein kinase (Homo sapiens) (UniProt P42679); assay: Inhibition of CTK at 10 uM; settings: values are per cent of control
[23] = tested on: Phosphatidylinositol 4,5-bisphosphate 3-kinase catalytic subunit alpha isoform (Homo sapiens), P42336 [E542K]; assay: Inhibition of PIK3CA E542K mutant at 10 uM
[24] = target: Receptor-type tyrosine-protein kinase FLT3 (Homo sapiens) (UniProt P36888); assay: Inhibition of FLT3 at 10 uM; settings: values are per cent of control
[25] = target: Cyclin-dependent kinase 5 (Homo sapiens) (UniProt Q00535); assay: Inhibition of CDK5 at 10 uM; values are per cent of control
[26] = target: Calcium/calmodulin-dependent protein kinase type II subunit gamma (Homo sapiens) (UniProt Q13555); assay: Inhibition of CAMK2G at 10 uM; settings: values are per cent of control
[27] = target: Protein kinase C theta type (Homo sapiens) (UniProt Q04759); assay: Inhibition of PRKCQ at 10 uM
[28] = target: Phosphatidylinositol 5-phosphate 4-kinase type-2 gamma (Homo sapiens) (UniProt Q8TBX8); assay: Inhibition of PIP5K2C at 10 uM
[29] = target: Serine/threonine-protein kinase 38 (Homo sapiens) (UniProt Q15208); assay: Inhibition of NDR1 at 10 uM
[30] = target: Tyrosine-protein kinase JAK1 (Homo sapiens) (UniProt P23458); assay: Inhibition of JAK1 JH1 catalytic domain at 10 uM; values are per cent of control
[31] = target: Tyrosine-protein kinase ABL2 (Homo sapiens) (UniProt P42684); assay: Inhibition of ABL2 at 10 uM; settings: values are per cent of control
[32] = target: Inhibitor of nuclear factor kappa-B kinase subunit beta (Homo sapiens) (UniProt O14920); assay: Inhibition of IKK-beta at 10 uM; settings: values are per cent of control
[33] = target: Tyrosine-protein kinase ABL1 (Homo sapiens) (UniProt P00519); assay: Inhibition of non phosphorylated ABL1 at 10 uM; settings: values are per cent of control
[34] = target: Cyclin-dependent kinase 3 (Homo sapiens) (UniProt Q00526); assay: Inhibition of CDK3 at 10 uM; values are per cent of control
BaF3 = assay: Antiproliferative activity against mouse BAF3 cells expressing wild type Bcr-Abl; assay type: functional, cell-based
[35] = target: Mitogen-activated protein kinase kinase kinase kinase 2 (Homo sapiens) (UniProt Q12851); assay: Inhibition of MAP4K2 at 10 uM; settings: values are per cent of control
[36] = target: Tyrosine-protein kinase JAK2 (Homo sapiens) (UniProt O60674); assay: Inhibition of JAK2 JH1 catalytic domain at 10 uM; values are per cent of control
[37] = tested on: Tyrosine-protein kinase ABL1 (Homo sapiens), P00519 [Y253F]; assay: Inhibition of phosphorylated ABL1 Y253F mutant at 10 uM; settings: values are per cent of control
[38] = target: Serine/threonine-protein kinase pim-2 (Homo sapiens) (UniProt Q9P1W9); assay: Inhibition of PIM2 at 10 uM
[39] = target: Serine/threonine-protein kinase 17B (Homo sapiens) (UniProt O94768); assay: Inhibition of DRAK2 at 10 uM; settings: values are per cent of control
[40] = target: Mast/stem cell growth factor receptor Kit (Homo sapiens) (UniProt P10721); assay: Inhibition of KIT at 10 uM; settings: values are per cent of control
[41] = target: Bone morphogenetic protein receptor type-1B (Homo sapiens) (UniProt O00238); assay: Inhibition of BMPR1B at 10 uM; settings: values are per cent of control

Death-associated protein kinase 3 (Homo sapiens), sequence (O43293 whole entry, looked up): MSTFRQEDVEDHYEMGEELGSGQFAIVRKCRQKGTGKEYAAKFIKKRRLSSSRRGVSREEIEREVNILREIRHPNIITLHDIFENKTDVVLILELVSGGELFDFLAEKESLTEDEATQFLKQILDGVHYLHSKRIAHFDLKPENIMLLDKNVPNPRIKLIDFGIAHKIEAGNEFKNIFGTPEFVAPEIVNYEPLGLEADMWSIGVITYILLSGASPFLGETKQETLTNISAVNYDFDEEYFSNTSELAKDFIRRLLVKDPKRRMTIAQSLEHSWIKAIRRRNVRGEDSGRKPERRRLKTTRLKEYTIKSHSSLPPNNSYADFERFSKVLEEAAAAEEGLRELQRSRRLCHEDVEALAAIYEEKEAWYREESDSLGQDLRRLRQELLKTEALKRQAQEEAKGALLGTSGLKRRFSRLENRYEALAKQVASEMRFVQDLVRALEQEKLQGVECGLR
Mitogen-activated protein kinase 14 (Homo sapiens), sequence (Q16539 whole entry): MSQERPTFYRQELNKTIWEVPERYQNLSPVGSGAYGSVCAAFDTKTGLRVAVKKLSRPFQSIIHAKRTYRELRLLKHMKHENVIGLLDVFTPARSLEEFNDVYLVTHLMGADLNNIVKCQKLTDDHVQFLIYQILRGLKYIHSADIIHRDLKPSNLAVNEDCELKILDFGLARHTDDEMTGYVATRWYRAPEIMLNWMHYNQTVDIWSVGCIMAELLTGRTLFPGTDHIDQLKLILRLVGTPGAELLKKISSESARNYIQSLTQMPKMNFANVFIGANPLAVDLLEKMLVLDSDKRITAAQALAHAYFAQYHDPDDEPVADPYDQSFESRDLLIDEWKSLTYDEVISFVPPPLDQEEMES
Calcium/calmodulin-dependent protein kinase type II subunit gamma (Homo sapiens), sequence (Q13555 whole entry): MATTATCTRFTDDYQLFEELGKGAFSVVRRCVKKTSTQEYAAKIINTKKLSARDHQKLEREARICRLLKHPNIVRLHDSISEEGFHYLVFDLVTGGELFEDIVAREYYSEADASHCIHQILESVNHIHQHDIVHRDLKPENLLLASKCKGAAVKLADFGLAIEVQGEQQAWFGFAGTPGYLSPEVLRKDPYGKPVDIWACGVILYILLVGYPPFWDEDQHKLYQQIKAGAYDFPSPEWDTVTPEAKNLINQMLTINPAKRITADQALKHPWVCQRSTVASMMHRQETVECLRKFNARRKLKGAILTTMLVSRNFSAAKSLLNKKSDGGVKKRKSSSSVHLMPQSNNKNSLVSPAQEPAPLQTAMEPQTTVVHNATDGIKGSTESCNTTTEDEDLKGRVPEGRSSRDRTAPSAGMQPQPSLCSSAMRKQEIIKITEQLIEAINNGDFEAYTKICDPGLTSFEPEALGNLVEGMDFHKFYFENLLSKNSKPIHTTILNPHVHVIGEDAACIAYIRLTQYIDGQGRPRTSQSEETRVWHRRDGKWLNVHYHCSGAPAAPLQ
Serine/threonine-protein kinase LATS1 (Homo sapiens), sequence (O95835 whole entry): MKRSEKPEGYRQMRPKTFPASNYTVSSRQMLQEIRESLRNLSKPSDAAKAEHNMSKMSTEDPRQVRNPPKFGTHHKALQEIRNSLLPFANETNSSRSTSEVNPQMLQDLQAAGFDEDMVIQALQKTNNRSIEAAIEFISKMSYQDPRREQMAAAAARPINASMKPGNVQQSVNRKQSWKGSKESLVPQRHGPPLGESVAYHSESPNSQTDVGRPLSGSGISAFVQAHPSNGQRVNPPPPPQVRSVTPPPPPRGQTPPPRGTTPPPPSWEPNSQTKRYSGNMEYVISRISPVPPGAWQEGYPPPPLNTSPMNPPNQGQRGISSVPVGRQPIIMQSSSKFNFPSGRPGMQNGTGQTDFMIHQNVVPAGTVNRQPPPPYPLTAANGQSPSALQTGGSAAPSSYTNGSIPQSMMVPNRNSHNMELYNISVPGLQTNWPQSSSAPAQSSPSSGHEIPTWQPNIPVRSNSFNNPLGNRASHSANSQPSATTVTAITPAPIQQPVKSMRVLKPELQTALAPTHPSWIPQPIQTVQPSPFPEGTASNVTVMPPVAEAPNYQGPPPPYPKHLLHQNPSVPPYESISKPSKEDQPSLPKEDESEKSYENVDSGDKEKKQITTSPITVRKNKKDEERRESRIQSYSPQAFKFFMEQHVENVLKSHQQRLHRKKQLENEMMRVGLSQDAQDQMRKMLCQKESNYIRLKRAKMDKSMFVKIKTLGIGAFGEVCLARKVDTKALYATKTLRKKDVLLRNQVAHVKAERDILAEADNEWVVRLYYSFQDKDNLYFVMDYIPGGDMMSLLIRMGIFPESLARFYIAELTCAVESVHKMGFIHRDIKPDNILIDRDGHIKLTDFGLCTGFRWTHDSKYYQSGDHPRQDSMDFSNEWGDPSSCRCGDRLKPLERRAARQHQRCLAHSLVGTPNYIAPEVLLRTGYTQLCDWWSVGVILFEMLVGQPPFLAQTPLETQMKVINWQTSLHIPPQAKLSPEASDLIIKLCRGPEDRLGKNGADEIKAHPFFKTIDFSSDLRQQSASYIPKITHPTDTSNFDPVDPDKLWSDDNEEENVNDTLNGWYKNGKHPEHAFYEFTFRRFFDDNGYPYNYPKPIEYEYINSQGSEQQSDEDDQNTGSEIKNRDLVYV
Mitogen-activated protein kinase kinase kinase 10 (Homo sapiens), sequence (Q02779 whole entry, looked up): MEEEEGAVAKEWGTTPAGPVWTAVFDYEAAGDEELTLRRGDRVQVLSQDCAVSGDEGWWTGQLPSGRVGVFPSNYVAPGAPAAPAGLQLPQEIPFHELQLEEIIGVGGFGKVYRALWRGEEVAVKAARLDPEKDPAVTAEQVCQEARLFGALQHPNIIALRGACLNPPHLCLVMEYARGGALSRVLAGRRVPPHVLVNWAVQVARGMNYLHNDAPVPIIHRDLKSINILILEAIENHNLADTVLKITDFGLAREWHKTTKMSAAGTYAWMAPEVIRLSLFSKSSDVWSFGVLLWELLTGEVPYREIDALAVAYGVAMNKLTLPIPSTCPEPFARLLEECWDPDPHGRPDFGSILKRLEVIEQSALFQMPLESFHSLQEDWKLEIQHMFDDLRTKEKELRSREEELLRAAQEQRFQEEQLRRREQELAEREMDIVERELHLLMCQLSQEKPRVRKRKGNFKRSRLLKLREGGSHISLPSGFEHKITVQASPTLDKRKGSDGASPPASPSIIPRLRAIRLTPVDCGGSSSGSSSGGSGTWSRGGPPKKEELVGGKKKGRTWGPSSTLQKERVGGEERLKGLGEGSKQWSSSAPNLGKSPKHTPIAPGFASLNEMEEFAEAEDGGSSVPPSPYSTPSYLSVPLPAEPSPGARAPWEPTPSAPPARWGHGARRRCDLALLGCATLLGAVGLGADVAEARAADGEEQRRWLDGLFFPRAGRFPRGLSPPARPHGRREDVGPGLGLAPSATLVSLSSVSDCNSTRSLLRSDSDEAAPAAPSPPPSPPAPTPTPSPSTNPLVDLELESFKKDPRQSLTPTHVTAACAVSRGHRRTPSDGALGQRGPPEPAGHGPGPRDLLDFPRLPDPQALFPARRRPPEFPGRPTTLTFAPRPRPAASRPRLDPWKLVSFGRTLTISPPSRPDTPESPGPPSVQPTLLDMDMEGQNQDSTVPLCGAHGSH
Serine/threonine-protein kinase 17B (Homo sapiens), sequence (O94768 whole entry): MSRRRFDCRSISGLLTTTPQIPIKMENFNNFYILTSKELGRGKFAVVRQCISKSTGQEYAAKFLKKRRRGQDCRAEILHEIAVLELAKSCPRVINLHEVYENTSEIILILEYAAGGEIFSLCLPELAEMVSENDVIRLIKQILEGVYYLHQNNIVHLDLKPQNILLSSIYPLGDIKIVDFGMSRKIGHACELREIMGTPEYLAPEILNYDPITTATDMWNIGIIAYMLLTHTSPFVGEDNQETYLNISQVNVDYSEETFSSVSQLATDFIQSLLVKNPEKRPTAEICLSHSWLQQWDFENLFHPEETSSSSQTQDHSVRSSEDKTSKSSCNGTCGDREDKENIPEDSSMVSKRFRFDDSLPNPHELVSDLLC
Interleukin-1 receptor-associated kinase 1 (Homo sapiens), sequence (P51617 whole entry, looked up): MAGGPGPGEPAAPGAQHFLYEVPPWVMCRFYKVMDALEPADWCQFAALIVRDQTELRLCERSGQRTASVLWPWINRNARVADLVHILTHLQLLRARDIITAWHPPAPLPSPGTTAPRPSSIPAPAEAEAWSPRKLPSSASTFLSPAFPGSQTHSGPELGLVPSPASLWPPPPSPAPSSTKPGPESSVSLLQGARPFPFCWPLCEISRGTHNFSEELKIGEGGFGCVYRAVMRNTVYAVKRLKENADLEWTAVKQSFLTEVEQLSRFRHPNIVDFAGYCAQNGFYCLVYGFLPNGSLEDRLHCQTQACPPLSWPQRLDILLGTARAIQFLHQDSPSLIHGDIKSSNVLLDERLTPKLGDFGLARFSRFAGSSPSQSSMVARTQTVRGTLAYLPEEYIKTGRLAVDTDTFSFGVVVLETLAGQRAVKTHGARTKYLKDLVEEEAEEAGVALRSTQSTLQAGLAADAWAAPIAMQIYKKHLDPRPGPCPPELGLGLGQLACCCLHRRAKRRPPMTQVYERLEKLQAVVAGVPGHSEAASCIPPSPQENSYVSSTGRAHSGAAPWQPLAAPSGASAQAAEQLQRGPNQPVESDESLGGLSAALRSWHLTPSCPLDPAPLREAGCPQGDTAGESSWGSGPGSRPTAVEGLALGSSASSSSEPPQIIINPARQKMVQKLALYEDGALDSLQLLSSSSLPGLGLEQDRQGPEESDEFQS
Dual specificity mitogen-activated protein kinase kinase 5 (Homo sapiens), sequence (Q13163 whole entry): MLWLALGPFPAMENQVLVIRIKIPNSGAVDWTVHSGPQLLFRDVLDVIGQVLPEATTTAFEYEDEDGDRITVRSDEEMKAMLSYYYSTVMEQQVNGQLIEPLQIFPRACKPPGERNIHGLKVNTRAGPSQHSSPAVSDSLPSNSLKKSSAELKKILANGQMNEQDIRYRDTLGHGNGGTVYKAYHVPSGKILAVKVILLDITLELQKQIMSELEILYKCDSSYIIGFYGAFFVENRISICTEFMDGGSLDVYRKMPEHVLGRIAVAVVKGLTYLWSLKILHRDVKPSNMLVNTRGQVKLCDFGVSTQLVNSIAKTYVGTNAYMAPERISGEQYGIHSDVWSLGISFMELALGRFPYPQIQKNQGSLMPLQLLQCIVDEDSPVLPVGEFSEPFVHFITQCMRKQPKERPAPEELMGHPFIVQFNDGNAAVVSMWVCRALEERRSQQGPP

**Q.** For `CCN1CCN(Cc2ccc(NC(=O)c3ccc(C)c(C#Cc4cnc5[nH]ccc5c4)c3)cc2C(F)(F)F)CC1`, which residual binding, % of control [1] is on record?
**A.** 53%

**Q.** What about the level, % of control [2] of the same compound?
**A.** 0%

**Q.** What about the residual binding, % of control [3] of the same compound?
**A.** 3.7%

**Q.** What about the level, % of control [4] of the same compound?
**A.** 6.2%

**Q.** What about the inhibition [5] of the same compound?
**A.** 84%

**Q.** What about the inhibition [6] of the same compound?
**A.** 42%

**Q.** What about the residual binding, % of control [7] of the same compound?
**A.** 100%

**Q.** And the residual binding, % of control [8]?
**A.** 0.4%

**Q.** And the residual binding, % of control [9]?
**A.** 96%

**Q.** And the residual binding, % of control [10]?
**A.** 2.7%

**Q.** And the inhibition [11]?
**A.** 9.5%

**Q.** And the level, % of control [12]?
**A.** 3.4%

**Q.** What about the % of control [13] of the same compound?
**A.** 24%

**Q.** What about the residual binding, % of control [14] of the same compound?
**A.** 82%

**Q.** And the residual binding, % of control [15]?
**A.** 0.25%

**Q.** What about the level, % of control [16] of the same compound?
**A.** 0.8%

**Q.** What about the residual binding, % of control [17] of the same compound?
**A.** 38%

**Q.** And the inhibition [18]?
**A.** 50%

**Q.** What about the inhibition [19] of the same compound?
**A.** 4.9%

**Q.** What about the inhibition [20] of the same compound?
**A.** 3.6%

**Q.** What about the residual binding, % of control [21] of the same compound?
**A.** 96%

**Q.** And the residual binding, % of control [22]?
**A.** 45%

**Q.** And the inhibition [23]?
**A.** 96%

**Q.** What about the residual binding, % of control [24] of the same compound?
**A.** 0.15%

**Q.** And the level, % of control [25]?
**A.** 24%

**Q.** What about the residual binding, % of control [26] of the same compound?
**A.** 92%

**Q.** What about the inhibition [27] of the same compound?
**A.** 36%

**Q.** And the inhibition [28]?
**A.** 100%

**Q.** And the inhibition [29]?
**A.** 33%

**Q.** And the level, % of control [30]?
**A.** 2.9%

**Q.** What about the residual binding, % of control [31] of the same compound?
**A.** 0%

**Q.** And the residual binding, % of control [32]?
**A.** 0.1%

**Q.** What about the residual binding, % of control [33] of the same compound?
**A.** 0.1%

**Q.** And the level, % of control [34]?
**A.** 32%

**Q.** What about the EC50 (BaF3) of the same compound?
**A.** < 1 nM

**Q.** And the residual binding, % of control [35]?
**A.** 0%

**Q.** And the level, % of control [36]?
**A.** 3%

**Q.** And the residual binding, % of control [37]?
**A.** 0.2%

**Q.** What about the inhibition [38] of the same compound?
**A.** 100%

**Q.** What about the residual binding, % of control [39] of the same compound?
**A.** 12%

**Q.** What about the residual binding, % of control [40] of the same compound?
**A.** 0%

**Q.** And the residual binding, % of control [41]?
**A.** 72%

**Q.** Which results are given for `CCN1CCN(Cc2ccc(NC(=O)c3ccc(C)c(C#Cc4cccnc4)c3)cc2C(F)(F)F)CC1`?
**A.** residual binding, % of control [1]: 81%; level, % of control [2]: 0%; residual binding, % of control [3]: 8.2%; level, % of control [4]: 1.2%; inhibition [5]: 99%; inhibition [6]: 100%; residual binding, % of control [7]: 100%; residual binding, % of control [8]: 0.4%; residual binding, % of control [9]: 80%; residual binding, % of control [10]: 0.25%; inhibition [11]: 40%; level, % of control [12]: 20%; % of control [13]: 87%; residual binding, % of control [14]: 100%; residual binding, % of control [15]: 0%; level, % of control [16]: 0.5%; residual binding, % of control [17]: 24%; inhibition [18]: 77%; inhibition [19]: 61%; inhibition [20]: 30%; residual binding, % of control [21]: 100%; residual binding, % of control [22]: 35%; inhibition [23]: 100%; residual binding, % of control [24]: 0.25%; level, % of control [25]: 10%; residual binding, % of control [26]: 95%; inhibition [27]: 55%; inhibition [28]: 100%; inhibition [29]: 4%; level, % of control [30]: 6.2%; residual binding, % of control [31]: 0.05%; residual binding, % of control [32]: 0%; residual binding, % of control [33]: 0%; level, % of control [34]: 24%; EC50 (BaF3): < 1 nM; residual binding, % of control [35]: 0%; level, % of control [36]: 3%; residual binding, % of control [37]: 0.15%; inhibition [38]: 100%; residual binding, % of control [39]: 100%; residual binding, % of control [40]: 0%; residual binding, % of control [41]: 78%
